Test results from patent US20210315893A1 (Galapagos NV, priority 2017, published 2021).

Key:
[1] = target: T1, human GPCR sphingosine 1-phosphate receptor 2 (Homo sapiens, UniProt O95136); test: S1PR2 antagonist Ca2+ flux assay; assay type: cell-based; settings: antagonist mode, CHO-S1PR2 cells, S1P at EC80, Ca2+ fluorescence; read-out: S1P2 EC50 (nM), S1P2 antagonist EC50
T1 construct: host or cells: CHO
In short: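 Antagonist mode: 15 min after compound addition, S1P (EC80) stimulates Fluo8-loaded, 1 h-starved CHO-S1PR2 cells, Ca2+ read over 3 min; a prior 3-min read checks compound agonism. EC50 from peak/baseline fluorescence ratio, normalised versus vehicle and S1P EC50 (antagonist) or EC100 (agonist).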

[2] = target: T2, human GPCR sphingosine 1-phosphate receptor 1 (Homo sapiens, UniProt P21453); test: S1PR1 selectivity Ca2+ flux assay (antagonist readout); assay type: cell-based; settings: antagonist readout, CHO cells overexpressing human S1PR1 and Gq, S1P at EC80 (6 nM); read-out: S1P1 EC50 (nM), S1P1 antagonist EC50
T2 construct: host or cells: CHO
In short: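 Antagonist mode: S1P challenge follows 15 min compound preincubation at 37 °C. Cells are CHO stably expressing human S1PR1, serum-starved 1 h (0.1% FAF BSA), loaded with Fluo 8. Peak-over-baseline fluorescence ratio is normalized to positive/negative controls; IC50 from logistic curve fit.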

[3] = target: T3, human GPCR sphingosine 1-phosphate receptor 5 (Homo sapiens, UniProt Q9H228); test: S1PR5 selectivity Ca2+ flux assay (antagonist readout); assay type: cell-based; settings: CHO cells overexpressing human S1PR5 and Gq, agonist at EC80 (20 nM), read-out: S1P5 EC50 (nM), S1P5 antagonist EC50
T3 construct: host or cells: CHO
In short: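 Antagonist readout: after 15 min compound preincubation at 37° C, human S1PR5/Gq CHO cells loaded with Fluo 8 dye received an EC80 challenge of S1PR5-specific agonist, and fluorescence was recorded for 3 min. Maximal-over-background ratios, normalized as % inhibition, gave IC50 by logistic fit.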

[4] = target: T4, S1PR2 (Homo sapiens, UniProt O95136); test: S1PR2 binding assay (competition with radioactively labeled S1P, SpA); settings: membranes from stable cell line over expressing S1PR2, SpA beads; read-out: S1P2 EC50 (nM), S1PR2 binding EC50
T4 construct: expressed in transfected cells
In short: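 Scintillation proximity read-out after 2 h room-temperature incubation of compound, [3H]S1P and S1PR2-overexpressing cell membranes on WGA-coated beads. Buffer: 20 mM Tris pH 7.5, 100 mM NaCl, 10 mM MgCl2, 1 mM Na3VO4, 0.4% fatty-acid-free BSA; plates counted immediately after centrifugation.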

[5] = system: HFL-1 cells; test: IL-8 production assay (S1P induced IL-8); assay type: cell-based; settings: Homo sapiens, HFL1; S1P (1 μM) induced IL-8 in HFL-1 cells, starvation medium without HSA; read-out: IL8 EC50
In short: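 HFL-1 fibroblasts in low-serum medium were pretreated 1 h with a 10-point 1/3 series of compound starting at 30 μM (0.3% DMSO).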

[6] = system: HFL-1 cells; test: IL8 assay in the presence of Human Serum Albumin; settings: HFL1, read-out: HSA IL8 EC50
Description: To evaluate the influence of plasma protein binding of S1P as well as compound, the S1P induced IL-8 levelswereevaluatedin presence of Human Serum Albumin (HSA, equivalent to 40% human serum).
Human Fetal Lung cells (HFL-1) are seeded in 96 well plates in growth medium (F12K+10% heat inactivated FBS+1% Pen/strep). […] On day three, compounds are added (10 point serial dilution, 30 μM highest concentration, 1/3 dilution, 0.3% DMSO final) and plates are incubated for 1 h at 37° C., 5% CO2. Subsequently S1P at 5 μM final concentration is added and plates are incubated for 16 to 24 h at 37° C., 5% COafter which the supernatant was collected. IL-8 levels in the supernatant are determined with the IL-8 ELISA of R&D systems.

T1 sequence (O95136 whole entry): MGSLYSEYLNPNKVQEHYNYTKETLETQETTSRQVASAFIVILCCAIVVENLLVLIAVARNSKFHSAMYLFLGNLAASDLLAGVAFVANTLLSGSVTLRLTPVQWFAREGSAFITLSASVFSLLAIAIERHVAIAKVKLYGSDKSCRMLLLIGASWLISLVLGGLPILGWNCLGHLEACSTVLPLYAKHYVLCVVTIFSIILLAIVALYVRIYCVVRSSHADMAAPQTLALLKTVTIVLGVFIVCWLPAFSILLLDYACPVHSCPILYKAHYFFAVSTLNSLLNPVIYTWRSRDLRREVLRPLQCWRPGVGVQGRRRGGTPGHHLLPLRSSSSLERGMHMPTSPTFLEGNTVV
T4 sequence (O95136 whole entry): as above
T2 sequence (P21453 whole entry): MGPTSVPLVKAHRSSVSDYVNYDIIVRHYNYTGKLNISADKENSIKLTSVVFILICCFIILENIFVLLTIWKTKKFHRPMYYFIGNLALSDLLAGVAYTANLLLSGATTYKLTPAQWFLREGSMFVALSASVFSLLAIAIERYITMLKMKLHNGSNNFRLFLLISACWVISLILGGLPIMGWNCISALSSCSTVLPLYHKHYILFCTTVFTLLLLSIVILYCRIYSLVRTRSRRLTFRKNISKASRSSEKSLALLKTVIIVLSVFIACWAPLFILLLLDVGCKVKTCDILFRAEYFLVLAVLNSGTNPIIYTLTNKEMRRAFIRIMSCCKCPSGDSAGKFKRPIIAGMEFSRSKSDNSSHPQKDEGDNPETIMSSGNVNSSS
T3 sequence (Q9H228 whole entry): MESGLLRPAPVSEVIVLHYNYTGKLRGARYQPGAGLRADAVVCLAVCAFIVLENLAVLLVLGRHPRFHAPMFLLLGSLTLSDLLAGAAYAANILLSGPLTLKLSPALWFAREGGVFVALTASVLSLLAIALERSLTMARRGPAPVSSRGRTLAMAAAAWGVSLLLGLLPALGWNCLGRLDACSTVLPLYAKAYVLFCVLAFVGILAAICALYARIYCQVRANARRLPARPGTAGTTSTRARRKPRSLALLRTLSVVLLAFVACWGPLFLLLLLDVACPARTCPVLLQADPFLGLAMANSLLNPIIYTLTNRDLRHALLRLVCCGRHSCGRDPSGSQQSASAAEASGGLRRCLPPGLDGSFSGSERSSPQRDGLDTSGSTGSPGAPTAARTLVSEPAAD

Compound: COCCOc1cc2[nH]c(Cc3nn(CC(=O)N4CCOCC4)c(=O)c4ccccc34)nc2cc1Cl [Compound 174, 4-[[5-chloro-6-(2-methoxyethoxy)-1H-benzimidazol-2-yl]methyl]-2-(2-morpholino-2-oxo-ethyl)phthalazin-1-one]
- EC50 [1]: 34.9 nM
- EC50 [2]: ≥ 19800 nM
- EC50 [3]: 19800 nM
- EC50 [4]: 56.8 nM
- EC50 [5]: 20.1 nM
- EC50 [6]: 58.9 nM

Compound: N#Cc1cc2[nH]c(Cc3nn(CC(=O)N4CCOCC4)c(=O)c4ccccc34)nc2cc1OCC(F)(F)F [Compound 175, 2-[[3-(2-morpholino-2-oxo-ethyl)-4-oxo-phthalazin-1-yl]methyl]-6-(2,2,2-trifluoroethoxy)-3H-benzimidazole-5-carbonitrile]
- EC50 [1]: 11.4 nM
- EC50 [2]: ≥ 19800 nM
- EC50 [3]: 19800 nM
- EC50 [4]: 78.9 nM
- EC50 [5]: 10.9 nM
- EC50 [6]: 61.6 nM

Compound: CN(C)C1CCN(C(=O)Cn2nc(Cc3nc4cc(OCC(F)F)c(C#N)cc4[nH]3)c3ccccc3c2=O)C1 (stereo not drawn) [Compound 176, 6-(2,2-difluoroethoxy)-2-[[3-[2-[3-(dimethylamino)pyrrolidin-1-yl]-2-oxo-ethyl]-4-oxo-phthalazin-1-yl]methyl]-3H-benzimidazole-5-carbonitrile]
- EC50 [1]: 489 nM
- EC50 [2]: ≥ 19800 nM
- EC50 [3]: 19800 nM
- EC50 [4]: 386 nM
- EC50 [5]: 116 nM
- EC50 [6]: 618 nM

Compound: C[C@@H]1CN(C(=O)Cn2nc(Cc3nc4cc(OCC(F)F)c(C#N)cc4[nH]3)c3ccccc3c2=O)C[C@H](C)O1 [Compound 177, 6-(2,2-difluoroethoxy)-2-[[3-[2-[(2S,6R)-2,6-dimethylmorpholin-4-yl]-2-oxo-ethyl)-4-oxo-phthalazin-1-yl]methyl]-3H-benzimidazole-5-carbonitrile]
- EC50 [1]: 57.1 nM
- EC50 [2]: ≥ 19800 nM
- EC50 [3]: 19800 nM
- EC50 [4]: 124 nM
- EC50 [5]: 18.6 nM
- EC50 [6]: 120 nM

Compound: N#Cc1cc2[nH]c(Cc3nn(CC(=O)NC4CCOC4)c(=O)c4ccccc34)nc2cc1OCC(F)F (stereo not drawn) [Compound 178, 2-[4-[[6-cyano-5-(2,2-difluoroethoxy)-1H-benzimidazol-2-yl]methyl]-1-oxo-phthalazin-2-yl]-N-THF-3-yl-acetamide]
- EC50 [1]: 118 nM
- EC50 [2]: ≥ 19800 nM
- EC50 [3]: 19800 nM
- EC50 [4]: 188 nM
- EC50 [5]: 160 nM
- EC50 [6]: 504 nM

Compound: O=C(Cn1nc(Cc2nc3cc(OCC(F)F)c(F)cc3[nH]2)c2c(c1=O)CCCC2)N1CCOCC1 [Compound 179, 4-[[5-(2,2-difluoroethoxy)-6-fluoro-1H-benzimidazol-2-yl]methyl]-2-(2-morpholino-2-oxo-ethyl)-5,6,7,8-tetrahydrophthalazin-1-one]
- EC50 [1]: 107 nM
- EC50 [2]: ≥ 19800 nM
- EC50 [3]: 19800 nM
- EC50 [4]: 207 nM
- EC50 [5]: 352 nM
- EC50 [6]: 353 nM

Compound: N#Cc1cc2nc(Cc3nn(CC(=O)N4CCC[C@H]4CO)c(=O)c4ccccc34)[nH]c2cc1OCC(F)F [Compound 198, 6-(2,2-difluoroethoxy)-2-[[3-[2-[(2S)-2-(hydroxymethyl)pyrrolidin-1-yl]-2-oxo-ethyl]-4-oxo-phthalazin-1-yl]methyl]-1H-benzimidazole-5-carbonitrile]
- EC50 [1]: 416 nM
- EC50 [2]: ≥ 19800 nM
- EC50 [3]: 19800 nM
- EC50 [4]: 486 nM
- EC50 [5]: 74.8 nM
- EC50 [6]: 210 nM

Compound: CC1(O)CCN(C(=O)Cn2nc(Cc3nc4cc(OCC(F)F)c(C#N)cc4[nH]3)c3ccccc3c2=O)C1 (stereo not drawn) [Compound 201, 6-(2,2-difluoroethoxy)-2-[[3-[2-(3-hydroxy-3-methyl-pyrrolidin-1-yl)-2-oxo-ethyl]-4-oxo-phthalazin-1-yl]methyl]-3H-benzimidazole-5-carbonitrile]
- EC50 [1]: 44.8 nM
- EC50 [2]: 13200 nM
- EC50 [3]: 19800 nM
- EC50 [4]: 138 nM
- EC50 [5]: 63.8 nM
- EC50 [6]: 152 nM

Compound: CN(C)C1CCN(C(=O)Cn2nc(Cc3nc4cc(C#N)c(OCC(F)F)cc4[nH]3)c3c(c2=O)CCCC3)C1 (stereo not drawn) [Compound 204, 6-(2,2-difluoroethoxy)-2-[[3-[2-[3-(dimethylamino)pyrrolidin-1-yl]-2-oxo-ethyl]-4-oxo-5,6,7,8-tetrahydrophthalazin-1-yl]methyl]-1H-benzimidazole-5-carbonitrile]
- EC50 [1]: 117 nM
- EC50 [2]: ≥ 19800 nM
- EC50 [3]: 19800 nM
- EC50 [4]: 296 nM
- EC50 [5]: 120 nM
- EC50 [6]: 546 nM

Compound: N#Cc1cc2nn(Cc3nn(CC(=O)NC4CCCC4)c(=O)c4ccccc34)cc2cc1OCC(F)F [Compound 208, 2-[4-[[6-cyano-5-(2,2-difluoroethoxy)indazol-2-yl)methyl]-1-oxo-phthalazin-2-yl]-N-cyclopentyl-acetamide]
- EC50 [1]: 10800 nM
- EC50 [2]: ≥ 19800 nM
- EC50 [3]: 19800 nM
- EC50 [4]: 1510 nM
- EC50 [5]: 9950 nM
- EC50 [6]: 3320 nM

Compound: N#Cc1cc2nn(Cc3nn(CC(=O)N4CCOCC4)c(=O)c4ccccc34)cc2cc1OCC1CC1 [Compound 209]
- EC50 [1]: 194 nM
- EC50 [2]: ≥ 19800 nM
- EC50 [3]: 19800 nM
- EC50 [4]: 235 nM
- EC50 [5]: 123 nM
- EC50 [6]: 382 nM

Compound: N#Cc1cc2[nH]c(Cc3nn(CC(=O)N4C[C@H](O)[C@@H](O)C4)c(=O)c4ccccc34)nc2cc1OCC(F)F [Compound 211, 6-(2,2-difluoroethoxy)-2-[[3-[2-[(3S,4S)-3,4-dihydroxypyrrolidin-1-yl]-2-oxo-ethyl]-4-oxo-phthalazin-1-yl]methyl]-3H-benzimidazole-5-carbonitrile]
- EC50 [1]: 39.7 nM
- EC50 [2]: ≥ 19800 nM
- EC50 [3]: 19800 nM
- EC50 [4]: 142 nM
- EC50 [5]: 46.5 nM
- EC50 [6]: 159 nM

Compound: N#Cc1cc2[nH]c(Cc3nn(CC(=O)N4CCC(O)C(F)(F)C4)c(=O)c4ccccc34)nc2cc1OCC(F)F (stereo not drawn) [Compound 212]
- EC50 [1]: 19.2 nM
- EC50 [2]: ≥ 19800 nM
- EC50 [3]: 19800 nM
- EC50 [4]: 65.6 nM
- EC50 [5]: 10.4 nM
- EC50 [6]: 64 nM

Compound: N#Cc1cc2[nH]c(Cc3nn(CC(=O)N4CCC(O)(C5CC5)CC4)c(=O)c4ccccc34)nc2cc1OCC(F)F [Compound 213, 2-[[3-[2-(4-cyclopropyl-4-hydroxy-1-piperidyl)-2-oxo-ethyl]-4-oxo-phthalazin-1-yl)methyl]-6-(2,2-difluoroethoxy)-3H-benzimidazole-5-carbonitrile]
- EC50 [1]: 41.4 nM
- EC50 [2]: ≥ 19800 nM
- EC50 [3]: 19800 nM
- EC50 [4]: 159 nM
- EC50 [5]: 70.7 nM
- EC50 [6]: 178 nM

Compound: N#Cc1cc2[nH]c(Cc3nn(CC(=O)N4CCC(O)(C5CC5)C4)c(=O)c4ccccc34)nc2cc1OCC(F)F (stereo not drawn) [Compound 214, 2-[[3-[2-(3-cyclopropyl-3-hydroxy-pyrrolidin-1-yl)-2-oxo-ethyl]-4-oxo-phthalazin-1-yl]methyl]-6-(2,2-difluoroethoxy)-3H-benzimidazole-5-carbonitrile]
- EC50 [1]: 34.6 nM
- EC50 [2]: ≥ 19800 nM
- EC50 [3]: 19800 nM
- EC50 [4]: 124 nM
- EC50 [5]: 7.04 nM
- EC50 [6]: 33.4 nM

Compound: N#Cc1cc2[nH]c(Cc3nn(CC(=O)N4CCC(O)(C(F)(F)F)C4)c(=O)c4ccccc34)nc2cc1OCC(F)F (stereo not drawn) [Compound 216, 6-(2,2-difluoroethoxy)-2-[[3-[2-[3-hydroxy-3-(trifluoromethyl)pyrrolidin-1-yl]-2-oxo-ethyl]-4-oxo-phthalazin-1-yl]methyl]-3H-benzimidazole-5-carbonitrile]
- EC50 [1]: 13 nM
- EC50 [2]: ≥ 19800 nM
- EC50 [3]: 19800 nM
- EC50 [4]: 44.7 nM
- EC50 [5]: 12.2 nM
- EC50 [6]: 16 nM

Compound: O=C(Cc1nn(Cc2nc3cc(OCC4CC4)c(Br)cc3[nH]2)c2ccccc2c1=O)N1C[C@H](O)[C@@H](O)C1 [Compound 217, 1-[[6-bromo-5-(cyclopropylmethoxy)-1H-benzimidazol-2-yl]methyl]-3-[2-[(3S,4S)-3,4-dihydroxypyrrolidin-1-yl]-2-oxo-ethyl]cinnolin-4-one]
- EC50 [1]: 2.23 nM
- EC50 [2]: 698 nM
- EC50 [3]: 19800 nM
- EC50 [4]: 2.58 nM
- EC50 [5]: 0.04 nM
- EC50 [6]: 1.36 nM
